We go through one compound from PMC10174618, “Monoterpenoid aryl hydrocarbon receptor allosteric antagonists protect against ultraviolet skin damage in female mice” (Nature Communications, 2023).

Common to all, as to test: biochemical
Holding throughout (parameters): KINOMEscan scanMAX active site-directed competition binding assay, percent of control, 468 kinases
Conditions in all cases: competition binding, percent of control

One test concerns the target MAP3K2 (Homo sapiens, UniProt Q9Y2U5). The gist of the method:
(§1)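 KINOMEscan active site-directed competition binding assay against 468 human kinases with 100 μM S-carvone. Binding expressed as % of control, with 35% of control as the inhibition threshold.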

For the next test, the target named is EGFR(G719S) (Homo sapiens, UniProt P00533, G719S). The gist of the method:
as §1

The next test deals with CAMKK1 (Homo sapiens, UniProt Q8N5S9). The gist of the method:
as §1

For a further test, the target named is PRKCE (Homo sapiens, UniProt Q02156). In a few lines:
as §1

Test [1] has as its target T1, ABL1(Q252H)-phosphorylated (Homo sapiens, UniProt P00519, Q252H).
T1 construct: phosphorylated
In a few lines:
as §1

Another test addresses MAP4K5 (Homo sapiens, UniProt Q9Y4K4). The gist of the method: as §1
The next test deals with PIM2 (Homo sapiens, UniProt Q9P1W9). In a few lines: as §1
The next test addresses IRAK1 (Homo sapiens, UniProt P51617). In a few lines:
as §1

In a further test the target is T2, MLK1 (Homo sapiens, UniProt P80192).
T2 construct: gene MAP3K9
The gist of the method:
as §1

A further test deals with T3, MRCKB (Homo sapiens, UniProt Q9Y5S2).
T3 construct: gene CDC42BPB
In a few lines: as §1

A further test deals with WNK4 (Homo sapiens, UniProt Q96J92). The gist of the method: as §1
Another test addresses FLT3(ITD) (Homo sapiens, UniProt P36888, ITD). In a few lines:
as §1

The target of a further test is CAMKK2 (Homo sapiens, UniProt Q96RR4). The gist of the method:
as §1

In a further test the target is IRAK4 (Homo sapiens, UniProt Q9NWZ3). In a few lines:
as §1

A further test addresses EGFR(L858R,T790M) (Homo sapiens, UniProt P00533, L858R/T790M). The gist of the method: as §1
The target of another test is LRRK2(G2019S) (Homo sapiens, UniProt Q5S007, G2019S). The gist of the method:
as §1

Another test deals with T4, IKK-epsilon (Homo sapiens, UniProt Q14164).
T4 construct: gene IKBKE
The gist of the method: as §1

The target in a further test is SRMS (Homo sapiens, UniProt Q9H3Y6). The gist of the method:
as §1

Another test concerns the target PIK3CB (Homo sapiens, UniProt P42338). In a few lines: as §1
The next test concerns the target MAPKAPK2 (Homo sapiens, UniProt P49137). The gist of the method:
as §1

Test [2] concerns the target T5, TYK2(JH1domain-catalytic) (Homo sapiens, UniProt P29597).
T5 construct: JH1domain-catalytic
In a few lines: as §1

The structures appear in SMILES notation.

Chain of MAP4K5 (Q9Y4K4 whole entry): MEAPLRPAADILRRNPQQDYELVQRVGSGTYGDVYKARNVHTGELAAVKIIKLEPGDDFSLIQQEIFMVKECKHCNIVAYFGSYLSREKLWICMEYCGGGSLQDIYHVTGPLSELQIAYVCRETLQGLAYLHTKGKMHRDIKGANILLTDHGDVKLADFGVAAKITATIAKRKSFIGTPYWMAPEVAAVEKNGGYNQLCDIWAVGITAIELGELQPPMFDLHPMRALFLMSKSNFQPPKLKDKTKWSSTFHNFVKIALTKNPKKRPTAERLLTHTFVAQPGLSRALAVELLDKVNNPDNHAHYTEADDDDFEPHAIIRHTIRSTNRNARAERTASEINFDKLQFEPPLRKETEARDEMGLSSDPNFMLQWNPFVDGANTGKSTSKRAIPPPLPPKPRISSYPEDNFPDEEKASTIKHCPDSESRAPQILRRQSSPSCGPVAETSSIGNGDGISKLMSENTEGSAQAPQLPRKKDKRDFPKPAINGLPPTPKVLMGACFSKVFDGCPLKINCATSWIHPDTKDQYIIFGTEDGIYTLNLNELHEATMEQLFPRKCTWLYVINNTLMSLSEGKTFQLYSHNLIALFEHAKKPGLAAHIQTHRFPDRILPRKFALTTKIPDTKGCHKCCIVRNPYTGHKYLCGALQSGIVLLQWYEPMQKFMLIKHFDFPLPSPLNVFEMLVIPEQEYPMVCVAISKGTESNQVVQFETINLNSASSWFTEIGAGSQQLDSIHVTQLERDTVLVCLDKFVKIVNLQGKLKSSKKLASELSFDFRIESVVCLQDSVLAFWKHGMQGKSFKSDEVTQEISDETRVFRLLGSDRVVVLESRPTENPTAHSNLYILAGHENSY
Chain of EGFR(G719S) (P00533 whole entry G719S): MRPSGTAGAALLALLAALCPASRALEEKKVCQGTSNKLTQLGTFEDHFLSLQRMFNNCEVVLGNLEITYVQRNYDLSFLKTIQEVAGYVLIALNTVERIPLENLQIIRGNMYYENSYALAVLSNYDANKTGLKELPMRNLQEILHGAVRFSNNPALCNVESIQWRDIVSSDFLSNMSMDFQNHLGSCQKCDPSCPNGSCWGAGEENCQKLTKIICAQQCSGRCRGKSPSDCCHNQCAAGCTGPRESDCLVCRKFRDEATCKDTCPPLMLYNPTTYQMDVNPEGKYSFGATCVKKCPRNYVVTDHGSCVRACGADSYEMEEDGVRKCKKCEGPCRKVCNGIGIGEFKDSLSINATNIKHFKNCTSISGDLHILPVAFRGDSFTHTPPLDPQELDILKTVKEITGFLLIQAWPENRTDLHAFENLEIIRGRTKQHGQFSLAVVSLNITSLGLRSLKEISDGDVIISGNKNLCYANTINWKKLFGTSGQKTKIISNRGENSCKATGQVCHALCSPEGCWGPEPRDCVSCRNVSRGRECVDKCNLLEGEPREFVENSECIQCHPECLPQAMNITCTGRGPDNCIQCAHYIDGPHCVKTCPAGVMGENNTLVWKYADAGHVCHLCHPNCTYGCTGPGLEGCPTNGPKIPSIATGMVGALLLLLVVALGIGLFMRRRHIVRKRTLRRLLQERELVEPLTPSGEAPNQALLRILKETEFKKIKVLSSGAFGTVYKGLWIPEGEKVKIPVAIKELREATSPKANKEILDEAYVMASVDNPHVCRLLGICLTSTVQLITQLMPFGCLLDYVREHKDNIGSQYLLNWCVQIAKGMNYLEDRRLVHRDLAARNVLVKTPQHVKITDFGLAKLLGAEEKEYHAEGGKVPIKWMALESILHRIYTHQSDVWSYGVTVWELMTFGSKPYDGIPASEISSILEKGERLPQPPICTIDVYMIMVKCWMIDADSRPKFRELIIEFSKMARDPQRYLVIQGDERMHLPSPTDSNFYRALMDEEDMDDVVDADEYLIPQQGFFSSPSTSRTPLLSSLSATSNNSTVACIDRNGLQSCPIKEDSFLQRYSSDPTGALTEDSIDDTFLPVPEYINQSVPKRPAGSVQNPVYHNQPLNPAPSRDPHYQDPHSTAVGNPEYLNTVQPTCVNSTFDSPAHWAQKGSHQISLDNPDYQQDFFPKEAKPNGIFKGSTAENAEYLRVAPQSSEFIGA
Chain of MAP3K2 (Q9Y2U5 whole entry): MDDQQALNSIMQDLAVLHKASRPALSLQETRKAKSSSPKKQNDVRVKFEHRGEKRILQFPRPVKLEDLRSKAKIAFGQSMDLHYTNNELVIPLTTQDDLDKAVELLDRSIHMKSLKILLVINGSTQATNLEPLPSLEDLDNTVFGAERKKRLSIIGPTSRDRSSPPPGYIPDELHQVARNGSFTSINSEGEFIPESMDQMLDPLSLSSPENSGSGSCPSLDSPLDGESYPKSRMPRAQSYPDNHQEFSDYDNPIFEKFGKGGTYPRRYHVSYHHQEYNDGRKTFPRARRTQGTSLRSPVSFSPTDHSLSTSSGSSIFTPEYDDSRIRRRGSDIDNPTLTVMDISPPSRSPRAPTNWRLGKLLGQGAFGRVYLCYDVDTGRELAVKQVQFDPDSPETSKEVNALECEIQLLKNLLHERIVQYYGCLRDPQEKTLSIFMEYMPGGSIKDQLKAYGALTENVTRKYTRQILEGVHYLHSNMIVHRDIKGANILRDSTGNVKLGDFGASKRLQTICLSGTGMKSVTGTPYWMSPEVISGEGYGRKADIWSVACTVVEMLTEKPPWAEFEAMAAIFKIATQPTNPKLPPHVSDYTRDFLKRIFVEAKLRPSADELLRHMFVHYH
Chain of PIM2 (Q9P1W9 whole entry): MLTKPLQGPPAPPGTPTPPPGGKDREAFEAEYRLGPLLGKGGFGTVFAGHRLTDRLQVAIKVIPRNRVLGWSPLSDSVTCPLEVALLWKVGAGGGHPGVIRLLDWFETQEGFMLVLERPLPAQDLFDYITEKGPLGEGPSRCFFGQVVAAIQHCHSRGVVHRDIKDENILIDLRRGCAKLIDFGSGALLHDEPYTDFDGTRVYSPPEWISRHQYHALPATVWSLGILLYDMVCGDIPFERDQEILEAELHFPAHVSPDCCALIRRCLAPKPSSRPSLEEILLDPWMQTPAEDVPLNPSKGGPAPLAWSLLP
Chain of SRMS (Q9H3Y6 whole entry): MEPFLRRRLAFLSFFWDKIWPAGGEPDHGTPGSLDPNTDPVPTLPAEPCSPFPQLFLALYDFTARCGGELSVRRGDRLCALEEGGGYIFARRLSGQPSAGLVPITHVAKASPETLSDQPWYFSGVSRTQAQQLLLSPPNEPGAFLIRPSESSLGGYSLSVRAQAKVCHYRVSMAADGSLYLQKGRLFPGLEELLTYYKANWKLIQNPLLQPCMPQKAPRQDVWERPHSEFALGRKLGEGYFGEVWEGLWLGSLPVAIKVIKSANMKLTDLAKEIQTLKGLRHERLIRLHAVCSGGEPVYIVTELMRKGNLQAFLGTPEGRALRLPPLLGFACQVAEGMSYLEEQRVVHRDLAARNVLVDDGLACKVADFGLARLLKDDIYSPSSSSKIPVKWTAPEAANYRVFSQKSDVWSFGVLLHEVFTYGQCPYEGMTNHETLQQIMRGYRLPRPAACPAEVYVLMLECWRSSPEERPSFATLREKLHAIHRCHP
T4 sequence (Q14164 whole entry): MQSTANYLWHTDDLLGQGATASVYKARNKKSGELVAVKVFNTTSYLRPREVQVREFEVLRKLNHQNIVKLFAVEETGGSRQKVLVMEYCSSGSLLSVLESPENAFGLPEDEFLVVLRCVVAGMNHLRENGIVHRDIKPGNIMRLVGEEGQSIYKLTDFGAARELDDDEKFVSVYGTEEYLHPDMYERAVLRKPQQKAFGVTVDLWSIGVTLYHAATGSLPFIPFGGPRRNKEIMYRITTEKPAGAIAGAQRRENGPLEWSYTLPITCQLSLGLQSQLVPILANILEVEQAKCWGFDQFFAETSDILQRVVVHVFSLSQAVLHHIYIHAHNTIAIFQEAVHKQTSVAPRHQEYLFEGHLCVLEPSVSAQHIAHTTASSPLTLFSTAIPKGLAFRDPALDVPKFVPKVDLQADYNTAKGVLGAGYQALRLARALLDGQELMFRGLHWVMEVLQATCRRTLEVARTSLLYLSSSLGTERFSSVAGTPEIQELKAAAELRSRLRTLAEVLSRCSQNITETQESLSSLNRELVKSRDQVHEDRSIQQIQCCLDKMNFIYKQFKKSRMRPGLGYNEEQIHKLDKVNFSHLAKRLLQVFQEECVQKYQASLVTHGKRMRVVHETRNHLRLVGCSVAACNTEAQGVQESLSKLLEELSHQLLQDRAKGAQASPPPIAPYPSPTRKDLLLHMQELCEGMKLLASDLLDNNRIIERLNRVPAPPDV
Chain of IRAK1 (P51617 whole entry): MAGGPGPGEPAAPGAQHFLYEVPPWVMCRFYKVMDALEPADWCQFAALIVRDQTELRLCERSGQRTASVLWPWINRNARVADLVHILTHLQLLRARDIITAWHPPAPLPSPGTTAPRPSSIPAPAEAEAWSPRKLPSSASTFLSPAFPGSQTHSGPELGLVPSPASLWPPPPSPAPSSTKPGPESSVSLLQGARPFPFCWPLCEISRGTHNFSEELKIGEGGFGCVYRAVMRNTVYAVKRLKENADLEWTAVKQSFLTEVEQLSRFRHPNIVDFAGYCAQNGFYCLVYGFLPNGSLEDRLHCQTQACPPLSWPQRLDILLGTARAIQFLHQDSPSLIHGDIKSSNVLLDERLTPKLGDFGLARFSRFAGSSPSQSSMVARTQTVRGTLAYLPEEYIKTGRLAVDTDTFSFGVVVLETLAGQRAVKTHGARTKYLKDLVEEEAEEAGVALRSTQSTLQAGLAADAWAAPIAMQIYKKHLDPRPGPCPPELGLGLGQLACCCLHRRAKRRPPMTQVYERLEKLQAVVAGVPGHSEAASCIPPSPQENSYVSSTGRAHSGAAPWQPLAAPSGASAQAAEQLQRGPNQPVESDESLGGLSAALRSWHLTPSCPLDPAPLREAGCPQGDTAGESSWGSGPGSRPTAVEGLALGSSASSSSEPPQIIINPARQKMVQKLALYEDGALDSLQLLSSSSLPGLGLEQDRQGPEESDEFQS

With `C=C(C)[C@H]1CC=C(C)C(=O)C1` [S-carvone], the remaining binding at 100 µM at MAP3K2 turned out to be 58%; on EGFR(G719S), 72%; on CAMKK1, 94%; at PRKCE, 94%; in test [1], 55%; on MAP4K5, 85%. For the same compound, the remaining binding at 100 µM was 86% at PIM2; 65% at IRAK1; 92% at MLK1; 91% at MRCKB; 77% at WNK4; 92% on FLT3(ITD). Moreover, the remaining binding at 100 µM at CAMKK2 is 81%; on IRAK4 it was 68%; on EGFR(L858R,T790M) it was 60%; on LRRK2(G2019S), 81%; at IKK-epsilon, 52%; on SRMS, 76%. In addition, the remaining binding at 100 µM on PIK3CB amounted to 88%; at MAPKAPK2, 77%; in test [2], 58%.
